# What was measured:
# [1] = In vivo inhibition of LMP2 activity in BALB/c mouse brain at 100 mg/kg, iv measured after 24 hrs relative to control; format: functional
# [2] = In vivo inhibition of LMP2 activity in BALB/c mouse brain at 150 mg/kg, po measured after 6 hrs post dose relative to control; format: functional
# [3] = Tmax in BALB/c mouse at 40 mg/kg, iv measured upto 1440 mins by LC-MS/MS analysis; format: ADME, organism-based; settings: in vivo, 24 h
# [4] = Metabolic stability in human liver microsomes assessed as parent compound remaining at 2 uM measured at 60 mins by LC-MS/MS analysis; format: ADME, Microsome; settings: 1 h
# [5] = Cmax in BALB/c mouse at 40 mg/kg, iv measured upto 1440 mins by LC-MS/MS analysis; format: ADME, organism-based; settings: in vivo, 24 h
# [6] = Toxicity in BALB/c mouse assessed as paralysis at 40 mg/kg, iv; format: organism-based; settings: in vivo
# [7] = Toxicity in BALB/c mouse at 100 mg/kg, iv measured for 72 hrs; format: organism-based; settings: in vivo
# [8] = Mutagenicity in Salmonella typhimurium TA98 at 0.01 to 100 uM incubated for 90 mins in presence of liver S9 fraction by AMES test; format: toxicity, subcellular; settings: salmonella enterica subsp. enterica serovar typhimurium, s9, 1.5 h, dose 0.01-100 µM
# [9] = AUC infinity in BALB/c mouse at 150 mg/kg, po measured after 15 to 360 mins by LC-MS/MS analysis; format: ADME, organism-based; settings: in vivo, time 15-360 min
# [10] = Toxicity in BALB/c mouse assessed as effect on hair loss at 40 mg/kg, iv; format: organism-based; settings: in vivo
# [11] = Cmax in BALB/c mouse at 150 mg/kg, po measured after 15 to 360 mins by LC-MS/MS analysis; format: ADME, organism-based; settings: in vivo, time 15-360 min
# [12] = Toxicity in BALB/c mouse assessed as tremor at 100 mg/kg, po; format: organism-based; settings: in vivo
# [13] = In vivo inhibition of LMP2 activity in BALB/c mouse brain at 40 mg/kg, iv measured after 2 hrs relative to control; format: functional
# HMC3 = experiment: Cytotoxicity against human HMC3 cells assessed as reduction in cell viability at 30 to 100 uM incubated for 96 hrs by CellTiter 96 Aqueous One Solution Cell Proliferation Assay; format: toxicity, cell-based; settings: hmc3, 96 h, dose 30-100 µM
# [14] = Drug uptake in BALB/c mouse lung at 40 mg/kg, iv measured after 2 hrs; format: ADME, organism-based; settings: in vivo
# [15] = Toxicity in BALB/c mouse assessed as effect on hair loss at 100 mg/kg, po; format: organism-based; settings: in vivo
# [16] = Tmax in BALB/c mouse plasma at 40 mg/kg, iv measured upto 1440 mins by LC-MS/MS analysis; format: ADME, organism-based
# [17] = AUC (0 to last) in BALB/c mouse at 150 mg/kg, po measured after 15 to 360 mins by LC-MS/MS analysis; format: ADME, organism-based; settings: in vivo, time 15-360 min
# [18] = Apparent permeability of the compound across basal to apical side in human Caco-2 cells expressing Pgp/BCRP at 10 uM incubated for 120 mins by LC-MS/MS analysis; format: ADME, cell-based; settings: caco-2, 2 h
# [19] = Toxicity in BALB/c mouse assessed as tremor at 40 mg/kg, iv; format: organism-based; settings: in vivo
# [20] = AUC infinity in BALB/c mouse at 40 mg/kg, iv measured upto 1440 mins by LC-MS/MS analysis; format: ADME, organism-based; settings: in vivo, 24 h
# [21] = Clearance in BALB/c mouse at 40 mg/kg, iv measured upto 1440 mins by LC-MS/MS analysis; format: ADME, organism-based; settings: in vivo, 24 h
# [22] = Drug uptake in BALB/c mouse liver at 40 mg/kg, iv measured after 2 hrs; format: ADME, organism-based; settings: in vivo
# ARPE-19 = experiment: Cytotoxicity against human ARPE-19 cells assessed as reduction in cell viability at 30 to 100 uM incubated for 96 hrs by CellTiter 96 Aqueous One Solution Cell Proliferation Assay; format: toxicity, cell-based; settings: arpe-19, 96 h, dose 30-100 µM
# [23] = Tmax in BALB/c mouse at 150 mg/kg, po measured after 15 to 360 mins by LC-MS/MS analysis; format: ADME, organism-based; settings: in vivo, time 15-360 min
# [24] = Cytotoxicity against human HMC3 cells assessed as reduction in cell viability incubated for 96 hrs by CellTiter 96 Aqueous One Solution Cell Proliferation Assay; format: toxicity, cell-based
# [25] = Metabolic stability in human liver microsomes assessed as half life at 2 uM measured upto 60 mins by LC-MS/MS analysis; format: ADME, Microsome; settings: 1 h
# [26] = Mutagenicity in Salmonella typhimurium TA100 at 0.01 to 100 uM incubated for 90 mins in presence of liver S9 fraction by AMES test; format: toxicity, subcellular; settings: salmonella enterica subsp. enterica serovar typhimurium, s9, 1.5 h, dose 0.01-100 µM
# [27] = Unbound clearance in human plasma; format: ADME, cell-free
# [28] = Toxicity in BALB/c mouse assessed as effect on weight loss at 40 mg/kg, iv; format: organism-based; settings: in vivo
# [29] = In vivo inhibition of LMP2 activity in BALB/c mouse brain at 40 mg/kg, iv measured after 24 hrs relative to control; format: functional
# [30] = Toxicity in BALB/c mouse assessed as diarrhea at 100 mg/kg, po; format: organism-based; settings: in vivo
# [31] = Mutagenicity in Salmonella typhimurium TA100 at 0.01 to 100 uM incubated for 90 mins in absence of liver S9 fraction by AMES test; format: toxicity; settings: salmonella enterica subsp. enterica serovar typhimurium, s9, 1.5 h, dose 0.01-100 µM
# [32] = molecular target: T1, Proteasome subunit beta type-9 (Homo sapiens, UniProt P28065); experiment: Inhibition of human LMP2 using Ac-PAL-AMC as substrate incubated for 1 hr by fluorescence based SpectraMax M5e plate reader
# T1 sequence (P28065 whole entry): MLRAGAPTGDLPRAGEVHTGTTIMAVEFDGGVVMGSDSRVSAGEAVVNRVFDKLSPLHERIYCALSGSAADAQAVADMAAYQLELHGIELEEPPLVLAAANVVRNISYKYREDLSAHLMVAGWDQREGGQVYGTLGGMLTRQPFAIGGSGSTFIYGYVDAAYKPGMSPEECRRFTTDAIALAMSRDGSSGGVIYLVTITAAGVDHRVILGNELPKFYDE
# [33] = Stability in human plasma; format: ADME, cell-free
# [34] = AUC (0 to last) in BALB/c mouse at 40 mg/kg, iv measured upto 1440 mins by LC-MS/MS analysis; format: ADME, organism-based; settings: in vivo, 24 h
# [35] = Drug uptake in BALB/c mouse kidney at 40 mg/kg, iv measured after 2 hrs; format: ADME, organism-based; settings: in vivo
# [36] = Drug uptake in BALB/c mouse brain at 40 mg/kg, iv measured after 2 hrs; format: ADME, organism-based; settings: in vivo
# [37] = Drug uptake in BALB/c mouse spleen at 40 mg/kg, iv measured after 2 hrs; format: ADME, organism-based; settings: in vivo
# [38] = In vivo inhibition of LMP2 activity in BALB/c mouse blood at 40 mg/kg, iv measured after 2 hrs relative to control; format: functional
# [39] = In vivo inhibition of LMP2 activity in BALB/c mouse blood at 150 mg/kg, po measured after 6 hrs post dose relative to control; format: functional
# [40] = Mutagenicity in Salmonella typhimurium TA98 at 0.01 to 100 uM incubated for 90 mins in absence of liver S9 fraction by AMES test; format: toxicity; settings: salmonella enterica subsp. enterica serovar typhimurium, s9, 1.5 h, dose 0.01-100 µM
smiles,measurement,setting,value
CC(C)C[C@H](NC(=O)[C@@H]1COCCCCCC(=O)N2C[C@H](F)C[C@H]2C(=O)N1)C(=O)[C@@]1(C)CO1,inhibition in vivo at 100 mg/kg,[1],65%
same,inhibition in vivo at 150 mg/kg,[2],21%
same,Tmax,[3],4.98 min
same,Stability,[4],33%
same,Cmax,[5],25900 ng/mL
same,Activity,[6],Non-Toxic
same,Activity,[7],Non-Toxic
same,Activity,[8],Non-Toxic
same,AUC,[9],3571 ng·h/mL
same,Activity,[10],Non-Toxic
same,Cmax,[11],3630 ng/mL
same,Activity,[12],Non-Toxic
same,inhibition in vivo at 40 mg/kg,[13],56%
same,Activity,HMC3,Non-Toxic
same,Drug uptake,[14],Not Active
same,Activity,[15],Non-Toxic
same,Tmax,[16],15 min
same,AUClast,[17],3553 ng·h/mL
same,Papp,[18],17.3 10^-6 cm/s
same,Activity,[19],Non-Toxic
same,AUC,[20],9689 ng·h/mL
same,CL,[21],70.88 mL/min/kg
same,Drug uptake,[22],Active
same,Activity,ARPE-19,Non-Toxic
same,Tmax,[23],20 min
same,IC50 at 96 h,[24],> 100000 nM
same,t1/2,[25],38.4 min
same,Activity,[26],Non-Toxic
same,CL free,[27],72 mL/min/kg
same,Activity,[28],Non-Toxic
same,inhibition in vivo at 40 mg/kg,[29],39%
same,Activity,[30],Non-Toxic
same,Activity,[31],Non-Toxic
same,IC50,[32],87 nM
same,Stability,[33],78%
same,AUClast,[34],9689 ng·h/mL
same,Drug uptake,[35],Active
same,Drug uptake,[36],Active
same,Drug uptake,[37],Active
same,inhibition in vivo at 40 mg/kg,[38],100%
same,inhibition in vivo at 150 mg/kg,[39],90%
same,Activity,[40],Non-Toxic
